What was measured:
Assay type in all cases: functional
Pseudomonas aeruginosa = assay: Antibacterial activity against Pseudomonas aeruginosa PAO1 WT after 72 hrs by broth microdilution method; conditions: PAO1, 72 h
Escherichia coli = assay: Antibacterial activity against Escherichia coli MC4100 after 72 hrs by broth microdilution method; conditions: MC4100, 72 h
Enterococcus faecalis = assay: Antibacterial activity against Enterococcus faecalis OG1RF after 72 hrs by broth microdilution method
Staphylococcus aureus = assay: Antibacterial activity against Staphylococcus aureus SH1000 after 72 hrs by broth microdilution method; conditions: SH1000, 72 h

| SMILES | MIC (Pseudomonas aeruginosa) [µM] | MIC (Escherichia coli) [µM] | MIC (Enterococcus faecalis) [µM] | MIC (Staphylococcus aureus) [µM] |
| --- | --- | --- | --- | --- |
| CCCCCCCCCC[n+]1ccc(-c2ccc[n+](CCCCCCCCCC)c2)cc1 | 16 | 2 | 2 | 2 |
| CCCCCCCCCCC[n+]1cccc(-c2ccc[n+](CCCCCCCCCCC)c2)c1 | 2 | 1 | 1 | 0.5 |
| CCCCCCCCCCCCCC[n+]1ccc(-c2ccc[n+](CCCCCCCCCCCCCC)c2)cc1 | 16 | 2 | 1 | 2 |
| CCCCCCCCCCCCCCCC[n+]1cccc(-c2ccc[n+](CCCCCCCCCCCCCCCC)c2)c1 | 16 | 8 | 1 | 2 |
| CCCCCCCC[n+]1cccc(-c2ccc[n+](CCCCCCCC)c2)c1 | > 500 | 250 | 125 | 32 |
| CCCCCCCCCC[n+]1cccc(-c2ccc[n+](CCCCCCCCCC)c2)c1 | 8 | 2 | 2 | 2 |
| CCCCCCCCCCCC[n+]1cccc(-c2ccc[n+](CCCCCCCCCCCC)c2)c1 | 2 | 1 | 1 | 1 |
| CCCCCCCCCCCC[N+](C)(C)Cc1ccccc1 [BENZODODECINIUM CHLORIDE] | 63 | 32 | 8 | 8 |
| CCCCCCCCCCCC[n+]1cccc(-c2ccc[n+](C)c2)c1 | 250 | 125 | 125 | 125 |
| CCCCCCCCCCCC[n+]1cccc(-c2ccc[n+](CCCCCCCCCC)c2)c1 | 4 | 2 | 2 | 2 |
| CCCCCCCCCCCCCC[n+]1cccc(-c2ccc[n+](CCCCCCCCCCCC)c2)c1 | 8 | 2 | 1 | 2 |
| CCCCCCCC[n+]1ccc(-c2ccc[n+](CCCCCCCC)c2)cc1 | > 500 | 125 | 125 | 125 |
| CCCCCCCCCCCCCC[n+]1cccc(-c2ccc[n+](CCCCCCCCCCCCCC)c2)c1 | 16 | 4 | 2 | 2 |
| CCCCCCCCCCCC[n+]1ccc(-c2ccc[n+](CCCCCCCCCCCC)c2)cc1 | 2 | 0.5 | 1 | 1 |
| CCCCCCCCCCCC[n+]1cccc(-c2ccc[n+](Cc3ccccc3)c2)c1 | 250 | 32 | 63 | 8 |
| CCCCCCCCCCC[n+]1ccc(-c2ccc[n+](CCCCCCCCCCC)c2)cc1 | 1 | 0.5 | 0.5 | 0.5 |
| CCCCCCCCCCCC[n+]1cccc(-c2cccnc2)c1 | 250 | 63 | 63 | 8 |
| CCCCCCCCCCCCCCCC[n+]1ccc(-c2ccc[n+](CCCCCCCCCCCCCCCC)c2)cc1 | 63 | 16 | 4 | 2 |

Reference: ChEMBL document CHEMBL3351864, “Beyond paraquats: dialkyl 3,3'- and 3,4'-bipyridinium amphiphiles as antibacterial agents” (2014)
